Measured values as given in article PMC12348660, “Synthesis, Characterization, HSA/DNA Binding, and Cytotoxic Activity of [RuCl2(η^6-p-cymene)(bph-κN)] Complex” (Molecules, 2025).

Target: T1, human serum albumin (HSA) (Homo sapiens, UniProt P02768)
T1 construct: gene ALB
Assay: intrinsic tryptophan fluorescence quenching titration (Stern-Volmer, double-log), […]-310 K
Assay type: binding
Settings: read-out: Kb [M^-1] (converted)

T1 sequence (P02768 25-609): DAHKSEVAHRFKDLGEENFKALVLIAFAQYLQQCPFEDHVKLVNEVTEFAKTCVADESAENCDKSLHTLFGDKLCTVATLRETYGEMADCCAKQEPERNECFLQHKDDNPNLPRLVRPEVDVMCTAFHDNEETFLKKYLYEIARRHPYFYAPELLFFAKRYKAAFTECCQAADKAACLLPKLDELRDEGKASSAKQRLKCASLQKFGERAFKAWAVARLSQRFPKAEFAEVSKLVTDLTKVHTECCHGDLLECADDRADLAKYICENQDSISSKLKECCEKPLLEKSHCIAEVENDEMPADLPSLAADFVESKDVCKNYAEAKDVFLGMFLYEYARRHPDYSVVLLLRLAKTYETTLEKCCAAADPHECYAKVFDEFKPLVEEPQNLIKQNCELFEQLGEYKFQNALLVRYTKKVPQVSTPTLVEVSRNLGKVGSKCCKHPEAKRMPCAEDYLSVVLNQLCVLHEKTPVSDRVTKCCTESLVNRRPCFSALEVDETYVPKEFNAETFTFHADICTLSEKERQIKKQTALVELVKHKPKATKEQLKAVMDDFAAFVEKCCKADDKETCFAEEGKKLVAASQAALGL

Work on “dichlorido((diphenylmethylidene)hydrazine-κN)(η^6-p-cymene)ruthenium(II) [compound 1]” yielded a Kd of 60.6 µM.
